Here are results for 2 compounds from patent publication US10494365B2, “Small molecule inhibitor of 3-phosphoglycerate dehydrogenase and uses thereof” (The Scripps Research Institute, priority 2015, dated 2019).

The structures appear in SMILES notation. Entries after “also recorded” stand apart in the source; their conditions may differ.

Experiment [1] has as its system Carney cells. Nature of the experiment: Acute drug treatment with 13C6-glucose tracing (GCMS, LC-MS/MS). The settings on record: acute treatment; for serine labeling: dose response. The format is cell-based.
Description: (§2) Carney cells acclimated to growth in MEM (Corning) were plated at 9×10^5 cells per 6 cm dish the night before. The following morning, media was replaced with fresh media containing (1) (1 μM, 15 μM, 30 μM) or vehicle control (DMSO) for 1h. Media was then aspirated, cells were washed with PBS, and fresh glucose free MEM (Gibco) supplemented with ^13C6-glucose (3 g/L, Cambridge Isotopes) and 10% dialyzed FBS containing drug or DMSO was added. After 2h, cells were quickly washed with cold PBS on ice and flash frozen. Polar metabolites were extracted as in the GCMS methods.
(§3) Polar metabolites were extracted with 2 ml MeOH/H2O (4:1) for 30 min on dry ice, scraped, transferred to 2 ml tubes, centrifuged (30 min, 15000 rpm), and the supernatants dried under vacuum. Samples were derivatized as previously described and analyzed on an Agilent 6890 GC instrument. Metabolite quantification was inferred from a standard curve and fractional enrichment of ^13C in metabolites was corrected for the natural abundance of ^13C and ^15N.
(§4) Polar metabolites were extracted and dried as in the GCMS method. Samples were resuspended in 15 μl of HPLC grade water. 5 μl of each sample was injected and analyzed using a 5500 QTRAP triple quadrupole mass spectrometer (AB/Sciex) coupled to a Prominence UFLC system (Shimadzu) as reported previously.
(§5) Newly synthesized serine has a mass-shift of 3 (M+3) due to the incorporation of glucose-derived ^13C via 3-PG. The kinetics of serine labeling were investigated.
Experiment [2] relates to cells. The description is as above. It counts as cell-based. The settings on record: LC-MS/MS, greater panel of metabolites.
Description: as §2, §3, §4, §5
For experiment [3], the system named is MCF7 cells. Description: Proliferation assay, MCF7. It counts as cell-based.
Description: (§6) Cells were plated at a low density in 96 or 24 well plates in serine containing media. The following day, media was aspirated, cells were washed with PBS, and fresh serine replete or deplete media containing drug (15 μM, 30 μM) or vehicle (DMSO) was added. Cells were grown for 3 to 5 days, with drug and media changed daily before assaying relative cell numbers.
The subject of experiment [4] is MDA-MB-468 (468) breast cancer cells. Nature of the experiment: LC-MS/MS metabolite profiling versus PHGDH knockdown. It counts as cell-based. The settings on record: 30 μM, 24 hours.
Description: MDA-MB-468 (468) breast cancer cells (PHGDH amplified) were grown in DMEM supplemented with FBS (10%), penicillin, and streptomycin. 468 cells stably expressing PHGDH knockdown constructs were generated by infecting 468 cells with lentivirus harboring pLKO.1 shRNAs against PHGDH (sh29) or (sh31) and a nontargeting control (shGFP). Following infections, cells were selected for 2 days using puromycin prior to seeding in 10 cm plates for the experiment. PHGDH knockdown cells (sh29 and sh31) were seeded in 10 cm plates, each in triplicate, and shGFP cells in sextuplet. […] After 24 hours of treatment, the media were aspirated, and cells were washed with cold PBS prior to flash freezing. Subsequently, polar metabolites were extracted with 80% methanol for 30 minutes, scraped, transferred to Eppendorf tubes, centrifuged to remove insoluble matter, and dried. […] Briefly, samples were injected and analyzed using a 5500 QTRAP triple quadrupole mass spectrometer (AB/Sciex) coupled to a Prominence UFLC system (Shimadzu). Approximately 250 metabolites were analyzed by single reaction monitoring (SRM).
Experiment [5] has as its target T1, PHGDH (Homo sapiens, UniProt O43175).
T1 sequence (O43175 1-533): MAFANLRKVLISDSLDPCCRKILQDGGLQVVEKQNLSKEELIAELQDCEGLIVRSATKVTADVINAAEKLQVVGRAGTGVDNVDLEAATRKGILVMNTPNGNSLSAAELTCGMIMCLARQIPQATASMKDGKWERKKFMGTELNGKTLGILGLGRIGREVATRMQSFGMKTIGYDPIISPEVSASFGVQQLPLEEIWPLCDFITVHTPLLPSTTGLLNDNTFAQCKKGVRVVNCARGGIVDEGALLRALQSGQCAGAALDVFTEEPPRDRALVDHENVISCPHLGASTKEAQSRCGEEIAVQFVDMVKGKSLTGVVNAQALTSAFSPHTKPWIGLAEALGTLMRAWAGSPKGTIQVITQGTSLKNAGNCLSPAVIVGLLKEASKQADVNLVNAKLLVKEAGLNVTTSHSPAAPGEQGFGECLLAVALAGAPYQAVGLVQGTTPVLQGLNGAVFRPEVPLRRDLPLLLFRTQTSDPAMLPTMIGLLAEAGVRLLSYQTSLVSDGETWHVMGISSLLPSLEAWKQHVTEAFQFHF
Description: PHGDH assay (NADH fluorescence, PSAT1 coupled). It counts as biochemical. Also on record: His6; made in house; host or cells: BL21 E. coli.
Description: (§7) PHGDH activity was measured in 96-well plates by monitoring NADH fluorescence (Ex340 nm/Em460 nm) over time. PSAT1 was included to prevent product inhibition of PHGDH.

In experiment [6] the test system is MDA-MB-468, MDA-MB-436, HCC70, and Hs578T. Nature of the experiment: cells. Conditions: read-out: growth inhibition.
Description: as §6
Experiment [7] concerns LDH. Description: Cross-linking assay, LDH. The settings on record: BS3 cross-linking, SDS-PAGE.
Description: (§8) Samples were run on SDS-PAGE and colloidal coomassie stained (Bio-Rad).
For experiment [8], the target named is truncated form of PHGDH, which lacks the C-terminal domain (Homo sapiens, UniProt O43175).
Description: as §7
Experiment [9] concerns the target T2, MDH1 (Homo sapiens, UniProt P40925).
T2 construct: purchased Sigma SRP6103
T2 sequence (P40925 1-334): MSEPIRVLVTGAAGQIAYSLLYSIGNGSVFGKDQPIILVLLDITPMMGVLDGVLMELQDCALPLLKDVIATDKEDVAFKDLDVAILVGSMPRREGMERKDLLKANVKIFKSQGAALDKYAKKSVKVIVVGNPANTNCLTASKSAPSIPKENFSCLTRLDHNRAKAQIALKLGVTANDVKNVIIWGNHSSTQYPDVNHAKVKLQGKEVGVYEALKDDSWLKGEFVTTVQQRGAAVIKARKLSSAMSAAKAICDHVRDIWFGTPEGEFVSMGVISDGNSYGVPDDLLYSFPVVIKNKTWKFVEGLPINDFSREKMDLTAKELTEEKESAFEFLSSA
Description: MDH1 assay (kit, recombinant enzyme). The format is biochemical. Conditions: at concentrations consistent with the PHGDH IC50. The method, then:
(§1) Enzyme activities were assayed using kits (LDH: Sigma MAK06; MDH1: Sigma MAK196-1KT) according to the manufacturer's instructions with commercially available recombinant enzyme (LDH: Sigma 59747; MDH1: Sigma SRP6103).

The test system of experiment [10] is lactate dehydrogenase (LDH). Description: LDH assay (kit, recombinant enzyme). The format is biochemical. The settings on record: at concentrations consistent with the PHGDH IC50 / drug concentrations used in cells. The method, then:
as §1

Experiment [11] deals with T1, PHGDH. Conditions: BS3 cross-linking, SDS-PAGE.
Description: as §8
The test system of experiment [12] is MDA-MB-468 cells. Description: Proliferation assay, MDA-MB-468. It counts as cell-based.
Description: as §6

The inhibition is the share of the control response that was lost under treatment. Take `CCOC(=O)c1sc(NC(=O)c2ccco2)c(SC#N)c1C` [Compound (1), Ethyl 5-(furan-2-carboxamido)-3-methyl-4-thiocyanatothiophene-2-carboxylate]: the serine labeling entry in experiment [1] (15 μM) is on record as “trended towards a decrease”; in experiment [1] (30 μM), “significantly decreased”. Further, the “perturbations in labeling (3-PG, pyruvate, lactate versus serine)” value in [1] (GCMS) is “specific to serine”. In [2], the glycolytic metabolites result is given as “unperturbed”. For the same compound, the “sensitivity of proliferation to drug” value was “partially sensitive” in experiment [3] (serine deplete conditions) and “insensitive” in [3] (serine replete conditions). Besides, the “purine metabolites (AMP, dAMP, IMP, GDP, dGDP, GMP levels)” value in experiment [4] is “down regulated”. For the same compound, the “decrease of intracellular serine levels” value in [4] (normalized to control treatment) amounted to 50%. In experiment [5] (increasing pre-incubation time of drug and PHGDH), the “time dependence of onset of inhibition” value was “progressively more potent”. For the same compound, in [5] (with respect to both substrates, decreasing Vmax), the mode of inhibition entry is given as “non-competitive”. Further, the inhibition at 30 µM in experiment [6] lay within 35 to 60%. The LDH oligomerization state result in experiment [7] is reported as “No such effect”. The “inhibition of truncated PHGDH” value in experiment [8] was “still inhibited”. In addition, the “effect on MDH1” value in [9] was “no effect”. For the same compound, the “effect on lactate dehydrogenase (LDH)” value in experiment [10] is “no effect; also recorded: does not inhibit”. Moreover, the PHGDH oligomerization state entry in [11] is recorded as “shifted the PHGDH equilibrium from the tetrameric to the dimeric state”.
For `Cc1c(C(=O)O)sc(NC(=O)c2ccco2)c1SC#N` [carboxylic acid derivative, 5-(furan-2-carboxamido)-3-methyl-4-thiocyanatothiophene-2-carboxylic Acid], the effect on proliferation entry in experiment [12] is “not effective”. Also, in [5] (in vitro), the “potency against and selectivity for PHGDH, acid derivative versus parent” value is “equally potent”.
